{"source": "patent US10570184B2", "about": "“GLP-1/glucagon receptor co-agonists for medical use” (Novo Nordisk A/S, priority 2014, dated 2020)", "note": "Starred links: 1 amine or outer side, 2 acyl side, 3 side chain; linkers in the order of their positions; H or OH if unused. Non-standard residues stand in square brackets, D forms with d. Residues, ends and D or L forms follow the SMILES beside them. Groups on a side chain read outwards from the residue. *: point of attachment. C18 diacid = O=C(O)CCCCCCCCCCCCCCCCC(=O)*; γGlu = O=C(O)[C@H](CCC(=O)[*:2])N[*:1]; Ac4c = NC1(C(=O)O)CCC1; AEEA = NCCOCCOCC(=O)O; Aib = CC(C)(N)C(=O)O"}
{"molecular_target": "T1, human GLP-1 receptor (Homo sapiens, UniProt P43220)", "T1 construct": "expressed in transfected cells; host or cells: membranes of BHK cells (parent BHKTS13), clone FCW467-12A", "T1 sequence (P43220 24-463)": "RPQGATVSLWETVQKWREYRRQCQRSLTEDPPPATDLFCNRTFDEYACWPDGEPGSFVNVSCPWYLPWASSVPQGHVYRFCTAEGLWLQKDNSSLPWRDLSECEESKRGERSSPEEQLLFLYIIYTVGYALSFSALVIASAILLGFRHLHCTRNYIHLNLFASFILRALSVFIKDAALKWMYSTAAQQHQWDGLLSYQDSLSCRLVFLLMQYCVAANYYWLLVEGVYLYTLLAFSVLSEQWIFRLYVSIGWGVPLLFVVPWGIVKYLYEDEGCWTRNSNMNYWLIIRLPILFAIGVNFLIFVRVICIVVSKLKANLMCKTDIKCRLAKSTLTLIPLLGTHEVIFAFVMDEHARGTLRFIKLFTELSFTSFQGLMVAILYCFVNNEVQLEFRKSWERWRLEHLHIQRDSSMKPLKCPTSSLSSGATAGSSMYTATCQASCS", "assay": "Assay (II)(a) GLP-1 receptor binding, 125I-GLP-1 displacement SPA on BHK membranes", "settings": "without presence of serum albumin; read-out: GLP-1R IC50 (nM) [Assay (II)(a)]", "how_it_was_run": "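Membranes from BHK cells (clone FCW467-12A) stably expressing human GLP-1R were incubated with serially diluted compounds (8×10EE-13 to 8×10EE-7 M before addition) and [125I]-GLP-1-(7-36)NH2 with WGA SPA beads, 2 h at 30° C, pH 7.4. IC50 taken from displacement by non-linear regression. Run at ≤0.001% or 2.0% final serum albumin.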", "units": {"IC50": "nM"}}
{"smiles": "CC[C@H](C)[C@H](NC(=O)[C@H](CC(C)C)NC(=O)[C@H](Cc1c[nH]c2ccccc12)NC(=O)[C@H](CCC(N)=O)NC(=O)[C@@H](NC(=O)[C@H](Cc1ccccc1)NC(=O)[C@H](CCC(=O)O)NC(=O)[C@H](CCCNC(=N)N)NC(=O)[C@H](C)NC(=O)[C@H](CCCNC(=N)N)NC(=O)[C@H](CCCNC(=N)N)NC(=O)[C@H](C)NC(=O)[C@H](CC(=O)O)NC(=O)[C@H](CC(C)C)NC(=O)[C@H](Cc1ccc(O)cc1)NC(=O)[C@H](CCCCN)NC(=O)[C@H](CO)NC(=O)[C@H](CC(C)C)NC(=O)[C@H](CC(=O)O)NC(=O)[C@H](CO)NC(=O)[C@@H](NC(=O)[C@H](Cc1ccccc1)NC(=O)[C@@H](NC(=O)CNC(=O)[C@H](CCC(N)=O)NC(=O)C(C)(C)NC(=O)[C@@H](N)Cc1c[nH]cn1)[C@@H](C)O)[C@@H](C)O)C(C)C)C(=O)N[C@@H](CO)C(=O)N[C@@H](CCCCNC(=O)CC[C@H](NC(=O)CC[C@H](NC(=O)COCCOCCNC(=O)COCCOCCNC(=O)CC[C@H](NC(=O)CCCCCCCCCCCCCCCCC(=O)O)C(=O)O)C(=O)O)C(=O)O)C(N)=O", "note": "[Chem. 28, N^ε29-[(4S)-4-carboxy-4-[[(4S)-4-carboxy-4-[[2-[2-[2-[[2-[2-[2-[[(4S)-4-carboxy-4-(17-carboxyheptadecanoylamino)butanoyl]amino]ethoxy]ethoxy]acetyl]amino]ethoxy]ethoxy]acetyl]amino]butanoyl]amino]butanoyl]-[Aib2,Leu10,Ala16,Arg20,Glu21,Ile27,Ser28,Lys29]-Glucagon amide] (H-H[Aib]QGTFTSDLSKYLDARRAREFVQWLISK([γGlu-γGlu-AEEA-AEEA-γGlu-C18 diacid])-NH2; N-terminus assumed)", "IC50": 0.2}
{"smiles": "CC[C@H](C)[C@H](NC(=O)[C@H](CC(C)C)NC(=O)[C@H](Cc1c[nH]c2ccccc12)NC(=O)[C@H](CCCCNC(=O)COCCOCCNC(=O)COCCOCCNC(=O)CC[C@H](NC(=O)CC[C@H](NC(=O)CC[C@H](NC(=O)CCCCCCCCCCCCCCCCC(=O)O)C(=O)O)C(=O)O)C(=O)O)NC(=O)[C@@H](NC(=O)[C@H](Cc1ccccc1)NC(=O)[C@H](CCC(=O)O)NC(=O)[C@H](CCCNC(=N)N)NC(=O)[C@H](C)NC(=O)[C@H](CCCNC(=N)N)NC(=O)[C@H](CCCNC(=N)N)NC(=O)[C@H](C)NC(=O)[C@H](CC(=O)O)NC(=O)[C@H](CC(C)C)NC(=O)[C@H](Cc1ccc(O)cc1)NC(=O)[C@H](CCCCN)NC(=O)[C@H](CO)NC(=O)[C@H](Cc1ccc(O)cc1)NC(=O)[C@H](CC(=O)O)NC(=O)[C@H](CO)NC(=O)[C@@H](NC(=O)[C@H](Cc1ccccc1)NC(=O)[C@@H](NC(=O)CNC(=O)[C@H](CCC(N)=O)NC(=O)C(C)(C)NC(=O)[C@@H](N)Cc1c[nH]cn1)[C@@H](C)O)[C@@H](C)O)C(C)C)C(=O)N[C@@H](CO)C(=O)N[C@H](C(N)=O)[C@@H](C)O", "note": "[Chem. 4, N^ε24-[2-[2-[2-[[2-[2-[2-[[(4S)-4-carboxy-4-[[(4S)-4-carboxy-4-[[(4S)-4-carboxy-4-(17-carboxyheptadecanoylamino)butanoyl]amino]butanoyl]amino]butanoyl]amino]ethoxy]ethoxy]acetyl]amino]ethoxy]ethoxy]acetyl]-[Aib2,Ala16,Arg20,Glu21,Lys24,Ile27,Ser28]-Glucagon amide] (H-H[Aib]QGTFTSDYSKYLDARRAREFVK([AEEA-AEEA-γGlu-γGlu-γGlu-C18 diacid])WLIST-NH2; N-terminus assumed)", "IC50": 0.1}
{"smiles": "CC[C@H](C)[C@H](NC(=O)[C@H](CC(C)C)NC(=O)[C@H](Cc1c[nH]c2ccccc12)NC(=O)[C@H](CCC(N)=O)NC(=O)[C@@H](NC(=O)[C@H](Cc1ccccc1)NC(=O)[C@H](CC(=O)O)NC(=O)[C@H](CCCNC(=N)N)NC(=O)[C@H](C)NC(=O)[C@H](CCCNC(=N)N)NC(=O)[C@H](CCCNC(=N)N)NC(=O)[C@H](CO)NC(=O)[C@H](CCC(=O)O)NC(=O)[C@H](CC(C)C)NC(=O)[C@H](Cc1ccc(O)cc1)NC(=O)[C@H](CCCNC(=N)N)NC(=O)[C@H](CO)NC(=O)[C@H](Cc1ccc(O)cc1)NC(=O)[C@H](CC(=O)O)NC(=O)[C@H](CO)NC(=O)[C@@H](NC(=O)[C@H](Cc1ccccc1)NC(=O)[C@@H](NC(=O)CNC(=O)[C@H](CCC(N)=O)NC(=O)C1(NC(=O)[C@@H](N)Cc2c[nH]cn2)CCC1)[C@@H](C)O)[C@@H](C)O)C(C)C)C(=O)N[C@@H](CCCCNC(=O)CC[C@H](NC(=O)COCCOCCNC(=O)CC[C@H](NC(=O)COCCOCCNC(=O)CC[C@H](NC(=O)COCCOCCNC(=O)CC[C@H](NC(=O)CC[C@H](NC(=O)CCCCCCCCCCCCCCCCC(=O)O)C(=O)O)C(=O)O)C(=O)O)C(=O)O)C(=O)O)C(=O)N[C@H](C(N)=O)[C@@H](C)O", "note": "[Chem. 36, N^ε28-[(4S)-4-carboxy-4-[[2-[2-[2-[[(4S)-4-carboxy-4-[[2-[2-[2-[[(4S)-4-carboxy-4-[[2-[2-[2-[[(4S)-4-carboxy-4-[[(4S)-4-carboxy-4-(17-carboxyheptadecanoylamino)butanoyl]amino]butanoyl]amino]ethoxy]ethoxy]acetyl]amino]butanoyl]amino]ethoxy]ethoxy]acetyl]amino]butanoyl]amino]ethoxy]ethoxy]acetyl]amino]butanoyl]-[Acb2,Arg12,Glu15,Arg20,Ile27,Lys28]-Glucagon amide] (H-H[Ac4c]QGTFTSDYSRYLESRRARDFVQWLIK([γGlu-AEEA-γGlu-AEEA-γGlu-AEEA-γGlu-γGlu-C18 diacid])T-NH2; N-terminus assumed)", "IC50": 1.5}
{"smiles": "CC[C@H](C)[C@H](NC(=O)[C@H](CC(=O)O)NC(=O)[C@H](CO)NC(=O)[C@@H](NC(=O)[C@H](Cc1ccccc1)NC(=O)[C@@H](NC(=O)CNC(=O)[C@H](CCC(N)=O)NC(=O)C1(NC(=O)[C@@H](N)Cc2c[nH]cn2)CCC1)[C@@H](C)O)[C@@H](C)O)C(=O)N[C@@H](CO)C(=O)N[C@@H](CCCCN)C(=O)N[C@@H](Cc1ccc(O)cc1)C(=O)N[C@@H](CC(C)C)C(=O)N[C@@H](CCC(=O)O)C(=O)N[C@@H](CO)C(=O)N[C@@H](CCCNC(=N)N)C(=O)N[C@@H](CCCNC(=N)N)C(=O)N[C@@H](C)C(=O)N[C@@H](CCCNC(=N)N)C(=O)N[C@@H](CCC(=O)O)C(=O)N[C@@H](Cc1ccccc1)C(=O)N[C@H](C(=O)N[C@@H](CCC(N)=O)C(=O)N[C@@H](Cc1c[nH]c2ccccc12)C(=O)N[C@@H](CC(C)C)C(=O)N[C@H](C(=O)N[C@@H](CCCCNC(=O)CC[C@H](NC(=O)CC[C@H](NC(=O)COCCOCCNC(=O)COCCOCCNC(=O)CC[C@H](NC(=O)CC[C@H](NC(=O)CCCCCCCCCCCCCCCCC(=O)O)C(=O)O)C(=O)O)C(=O)O)C(=O)O)C(=O)N[C@H](C(N)=O)[C@@H](C)O)[C@@H](C)CC)C(C)C", "note": "[Chem. 26, N^ε28-[(4S)-4-carboxy-4-[[(4S)-4-carboxy-4-[[2-[2-[2-[[2-[2-[2-[[(4S)-4-carboxy-4-[[(4S)-4-carboxy-4-(17-carboxyheptadecanoylamino)butanoyl]amino]butanoyl]amino]ethoxy]ethoxy]acetyl]amino]ethoxy]ethoxy]acetyl]amino]butanoyl]amino]butanoyl]-[Acb2,Ile10,Glu15,Arg20,Glu21,Ile27,Lys28]-Glucagon amide] (H-H[Ac4c]QGTFTSDISKYLESRRAREFVQWLIK([γGlu-γGlu-AEEA-AEEA-γGlu-γGlu-C18 diacid])T-NH2; N-terminus assumed)", "IC50": 0.4}
